According to the supplement of paper PMC11962398:

What was measured:
BI-2493 [1] = compound: T1, C[C@H]1CNCCN1c1nccc(-c2noc3c2CCC[C@@]32CCCc3sc(N)c(C#N)c32)n1 [BI-2493]; test: 1 - AUC of viability dose-response curve (sensitivity) (fraction); higher = more sensitive; conditions: 5 days
Experimental: (§1)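 PRISM pooled barcoded cancer cell line viability screen (Broad Institute) with BI-2493 at 8 doses in threefold dilutions from 0.00457 to 10 µmol/L, 5-day treatment; curves fitted per cell line. IC50 is undefined (placeholder) for resistant lines. AUC is capped at 1, and sensitivity is reported as 1 − AUC.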

BI-2493 [2] = compound: T1, BI-2493; conditions: 5 days
Experimental: as §1

Row | Test System | 1 - AUC of viability dose-response curve (BI-2493 [1]) | IC50 of cell viability (BI-2493 [2])
1 | AMO1_HAEMATOPOIETIC_AND_LYMPHOID_TISSUE | 0.088 | 5.6 µM
2 | AN3CA_ENDOMETRIUM | 0.142 | 4.74 µM
3 | ANGMCSS_CENTRAL_NERVOUS_SYSTEM | 0.0225 | > 10 µM
4 | ASPC1_PANCREAS | 0.32 | 2.11 µM
5 | AU565_BREAST | 0.0935 | 6.01 µM
6 | BC3C_URINARY_TRACT | 0.193 | 5.1 µM
7 | BCPAP_THYROID | 0.0703 | 6.5 µM
8 | BDCM_HAEMATOPOIETIC_AND_LYMPHOID_TISSUE | 0.0903 | > 10 µM
9 | BECKER_CENTRAL_NERVOUS_SYSTEM | 0.00973 | 9.55 µM
10 | BEN_LUNG | 0.264 | 1.62 µM
11 | BFTC905_URINARY_TRACT | 0.114 | 6.41 µM
12 | BFTC909_KIDNEY | 0.0855 | 6.33 µM
13 | BHT101_THYROID | 0.0404 | 7.97 µM
14 | BHY_UPPER_AERODIGESTIVE_TRACT | 0.0642 | 5.93 µM
15 | BICR6_UPPER_AERODIGESTIVE_TRACT | 0.178 | 4 µM
16 | BICR16_UPPER_AERODIGESTIVE_TRACT | 0.263 | 5.24 µM
17 | BICR18_UPPER_AERODIGESTIVE_TRACT | 0.147 | 4.16 µM
18 | BICR22_UPPER_AERODIGESTIVE_TRACT | 0.137 | 4.66 µM
19 | BICR31_UPPER_AERODIGESTIVE_TRACT | 0.0764 | 6.97 µM
20 | BICR56_UPPER_AERODIGESTIVE_TRACT | 0.152 | 4.72 µM
21 | BICR78_UPPER_AERODIGESTIVE_TRACT | 0.173 | 5.51 µM
22 | BL2_HAEMATOPOIETIC_AND_LYMPHOID_TISSUE | 0.183 | 4.45 µM
23 | BLUE1_HAEMATOPOIETIC_AND_LYMPHOID_TISSUE | 0.129 | 3.33 µM
24 | BOKU_CERVIX | 0.119 | > 10 µM

Row | Test System | 1 - AUC of viability dose-response curve (BI-2493 [1]) | IC50 of cell viability (BI-2493 [2])
25 | BONNA12_HAEMATOPOIETIC_AND_LYMPHOID_TISSUE | 0.117 | > 10 µM
26 | BT12_SOFT_TISSUE | 0.17 | 5.51 µM
27 | BT16_SOFT_TISSUE | 0.189 | > 10 µM
28 | BT474_BREAST | 0.0542 | 9.18 µM
29 | BT549_BREAST | 0.0828 | 8.89 µM
30 | BV173_HAEMATOPOIETIC_AND_LYMPHOID_TISSUE | 0.344 | 1.67 µM
31 | BXPC3_PANCREAS | 0.0507 | > 10 µM
32 | C4I_CERVIX | 0.154 | 3.49 µM
33 | C32_SKIN | 0.0594 | 9.25 µM
34 | C33A_CERVIX | 0.131 | 3.53 µM
35 | C75_LARGE_INTESTINE | 0.22 | 9.28 µM
36 | C80_LARGE_INTESTINE | 0.3 | 0.477 µM
37 | C8166_HAEMATOPOIETIC_AND_LYMPHOID_TISSUE | 0.00732 | 9.65 µM
38 | CADOES1_BONE | 0.00999 | 9.64 µM
39 | CAKI1_KIDNEY | 0.0185 | 9.29 µM
40 | CAL12T_LUNG | 0.201 | 4.93 µM
41 | CAL27_UPPER_AERODIGESTIVE_TRACT | 0.241 | 3.79 µM
42 | CAL29_URINARY_TRACT | 0.264 | 2.5 µM
43 | CAL33_UPPER_AERODIGESTIVE_TRACT | 0.142 | 6.54 µM
44 | CAL51_BREAST | 0.0624 | 9.13 µM
45 | CAL54_KIDNEY | 0.00233 | > 10 µM
46 | CAL62_THYROID | 0.0045 | > 10 µM
47 | CAL72_BONE | 0.176 | > 10 µM
48 | CAL78_BONE | 0.0497 | 7.37 µM

Row | Test System | 1 - AUC of viability dose-response curve (BI-2493 [1]) | IC50 of cell viability (BI-2493 [2])
49 | CAL120_BREAST | 0.0763 | > 10 µM
50 | CAL148_BREAST | < 0 | > 10 µM
51 | CALU1_LUNG | 0.0917 | 5.25 µM
52 | CALU6_LUNG | 0.00583 | 9.77 µM
53 | CAMA1_BREAST | 0.00667 | > 10 µM
54 | CAOV3_OVARY | 0.0615 | > 10 µM
55 | CAPAN2_PANCREAS | 0.303 | 1.2 µM
56 | CAS1_CENTRAL_NERVOUS_SYSTEM | 0.0158 | 9.1 µM
57 | CASKI_CERVIX | 0.0572 | 8.68 µM
58 | CCFSTTG1_CENTRAL_NERVOUS_SYSTEM | 0.00118 | > 10 µM
59 | CCK81_LARGE_INTESTINE | 0.0958 | 6.18 µM
60 | CCLP1_BILIARY_TRACT | 0.0617 | 7.32 µM
61 | CCSW1_BILIARY_TRACT | 0.14 | 5.45 µM
62 | CFPAC1_PANCREAS | 0.15 | 4.12 µM
63 | CH157MN_CENTRAL_NERVOUS_SYSTEM | 0.0235 | 8.61 µM
64 | CHAGOK1_LUNG | 0.173 | 4.47 µM
65 | CHL1_SKIN | 0.14 | 4.96 µM
66 | CHLA06ATRT_SOFT_TISSUE | 0.141 | 7.12 µM
67 | CHLA15_AUTONOMIC_GANGLIA | 0.187 | 5.41 µM
68 | CHLA57_BONE | 0.211 | 3.06 µM
69 | CHLA200_CENTRAL_NERVOUS_SYSTEM | 0.0104 | 9.58 µM
70 | CHP212_AUTONOMIC_GANGLIA | 0.00818 | 9.9 µM
71 | CJM_SKIN | 0.11 | 5.39 µM
72 | CL11_LARGE_INTESTINE | 0.117 | 5.92 µM

Row | Test System | 1 - AUC of viability dose-response curve (BI-2493 [1]) | IC50 of cell viability (BI-2493 [2])
73 | CL34_LARGE_INTESTINE | 0.00172 | > 10 µM
74 | CMLT1_HAEMATOPOIETIC_AND_LYMPHOID_TISSUE | 0.129 | 4.55 µM
75 | COGN278_AUTONOMIC_GANGLIA | 0.0701 | 7.86 µM
76 | COLO320_LARGE_INTESTINE | 0.057 | 7.35 µM
77 | COLO668_LUNG | 0.103 | 5.95 µM
78 | COLO679_SKIN | 0.146 | 4.47 µM
79 | COLO680N_OESOPHAGUS | 0.0719 | 8.49 µM
80 | COLO741_SKIN | 0.00696 | 9.66 µM
81 | COLO783_SKIN | 0.176 | 5.22 µM
82 | COLO792_SKIN | 0.221 | 7.62 µM
83 | COLO800_SKIN | 0.0454 | 7.65 µM
84 | CORL23_LUNG | 0.0991 | 5.82 µM
85 | CORL88_LUNG | 0.143 | 4.54 µM
86 | CORL105_LUNG | 0.157 | > 10 µM
87 | CORL279_LUNG | 0.134 | 7.86 µM
88 | COV318_OVARY | 0.0643 | > 10 µM
89 | COV362_OVARY | 0.00606 | > 10 µM
90 | COV434_OVARY | 0.191 | 3.6 µM
91 | COV644_OVARY | 0.157 | 7.18 µM
92 | CW2_LARGE_INTESTINE | 0.071 | 8.55 µM
93 | CW9019_SOFT_TISSUE | 0.111 | 3.99 µM
94 | DAOY_CENTRAL_NERVOUS_SYSTEM | 0.0237 | 9.62 µM
95 | DBTRG05MG_CENTRAL_NERVOUS_SYSTEM | 0.0396 | 7.98 µM
